US10584127B2, “3,3-difluoropiperidine carbamate heterocyclic compounds as NR2B NMDA receptor antagonists” (Rugen Holdings (Cayman) Limited, priority 2015, dated 2020)

Assays:
[1] = system: electroconvulsive threshold (tonic convulsions); assay: Electroconvulsive Threshold Test (ECT); format: in vivo, rats; conditions: rats
Method: Rats were administered ECS (rectangular current: 0.6 ms pulse width, 1.5 s duration, 200 Hz) via earclip electrodes connected to a constant current shock generator (Ugo Basile: type 7801). Test compounds were administered by oral gavage (p.o.) 1 hour before the test at a dose volume of 5 mL/kg.
Treatment groups of 20 rats were exposed to ECS as follows: The first animal was exposed to 30 mA of ECS. […] (increases of 5 mA) until the first tonic convulsion was observed. Once the first tonic convulsion was observed, the intensity of ECS was decreased by 2 mA for the next animal and then decreased or increased by 2 mA from animal to animal depending on whether the previous animal convulsed or not. If the first animal did convulse (tonic convulsions) within 5 seconds, animal n°2 is exposed to 25 mA, etc . . . (decreases of 5 mA) until the absence of tonic convulsions was observed. At this point, the intensity of ECS was increased by 2 mA for the next animal and then decreased or increased by 2 mA from animal to animal depending on whether the previous animal convulsed or not. The minimum current intensity applied is 5 mA and the maximum 95 mA. The first 5 animals serve to approach threshold current and were not included in the analysis. The results are presented as the mean current intensity administered to the final 15 animals of a group. The test was performed blind. A positive percent change indicates an anticonvulsant effect. A negative percent change indicates a proconvulsant effect. The test substance was evaluated at 4 doses, typically using 0.5% dimethylsulfoxide, 4% hydroxypropyl-b-cyclodextrin water as a vehicle, and administered p.o. 60 minutes before ECS, and compared with a vehicle control group. Diazepam (16 mg/kg p.o.), administered under the same experimental conditions, was used as reference substance. The experiment included 6 groups. Data with the test substance was analyzed by comparing treated groups with vehicle control using one-way ANOVA followed by Dunnett's t tests.

[2] = system: NMDA receptor (all subtypes), native rat brain receptors; assay: [3H] MK-801 radioligand binding assay, rat brain membranes; conditions: 2 nM [3H] MK-801, rat brain membranes
Method: This example describes NMDA receptor binding assays using two different radioligands, [^3H] […] An established binding assay using the non-selective NMDA receptor ligand [^3H] […] The binding assay method using the NR2B selective receptor ligand [^3H] […] This assay serves as a selective measure of NR2B receptor binding activity in native rat brain receptors. Briefly, the brains of Male Wistar rats were homogenized (Polytron) before centrifugation at 40,000×g for 15 minutes at 4° C. After 2 washes, the final pellet was homogenized and stored at −80° C. The protein concentration was determined by Bradford assay.
Test compounds were solubilized at 10 mM in DMSO. Then the dilutions were performed with a constant solvent concentration (1% DMSO) in the assay.
After incubation for 4.5 h at room temperature, the assays were filtered on GF/B filters pretreated with 0.3% (v/v) PEI with a Brandel system for [^3H] […] The experiment was performed in duplicate (n=2).

CYP2D6 = CYP2D6 (Homo sapiens (Human), UniProt P10635); assay: CYP P450 enzyme inhibition, pooled human liver microsome; format: in vitro ADME; conditions: HLM, dextromethorphan 5 μM
cloned human NR1/NR2A = cloned human NR1/NR2A (Homo sapiens (Human), UniProt Q12879); assay: NR2A antagonist activity, Fluo-4 calcium influx in HEK293 cells; format: cell-based; conditions: glutamate 100 μM, glycine 50 μM
[3] = system: immobility in forced swim test; assay: Forced Swim Test (FST) in mice; format: in vivo
Excerpt: (§1) The forced swim test (FST) also known at the behavioural despair test was used to evaluate antidepressant activity (Porsolt et al., 1977 Arch. Int. Pharmacodyn. 229: 327-336, Porsolt et al., 1977, Eur. J. Pharmacol. 47:379-391). Mice or rats that are forced to swim in a situation from which they cannot escape, rapidly become immobile. Drugs with antidepressant activity, such as imipramine, reduce the amount of time spent in the immobile state. Therefore, the amount of immobility time during a test conducted after drug administration represents a useful indicator of antidepressant activity (Lucki et al 2001 Psychopharmacology 155:315-322; Porsolt et al., 1977, Nature 266:730-732).
(§2) Test compound E1-8.2 was administered as the free base.
Testing for antidepressant activity was conducted in rats or mice according to the general procedures below.
Mice were evaluated in a single swimming test session of 6 minutes. Mice were placed in a transparent plastic cylinder 24 cm high with a diameter of 13 cm containing 10 cm of water with ambient temperature control generally from 22±2° C. Mice were placed in the water for 6 minutes and the duration of immobility during the last 4 minutes was measured.
Animals were observed by a blinded observer. […] The amount of time each animal spent in the immobile state (and the latency to the first bout of immobility) was recorded and used for statistical analysis of compound effect. Group differences were evaluated by student's t-test (reference substance) or one-way ANOVA followed by post-hoc Dunnett's test (test substances). […]
Male mice (strain NLMN) weighing 25-35 g were used for testing. […] The mice were videotaped for 6 minutes, and the last 4 minutes of video were analyzed by a blinded observer off-line. […] The amount of time each animal spent in the immobile state was recorded and used for statistical analysis of compound effect. Group differences were evaluated by student's t-test or one-way ANOVA followed by post-hoc Dunnett's test. […]

[4] = system: immobility in forced swim test; assay: Forced Swim Test (FST) in rats; format: in vivo
Excerpt: as §1
Test compound E1-8.2 was administered as the free base. […]
Male Wistar rats weighing 197-251 g were used for the rat test. Rats were evaluated according to a two-session procedure with a swimming session of 15 minutes on the first day of the experiment (Session 1) followed 24 hours later by a 5-minute swimming test (Session 2). […] Rats were placed in the water 24 h later for 5 minutes (Session 2) and the duration of immobility was measured.
Animals were observed by a blinded observer. […] The amount of time each animal spent in the immobile state (and the latency to the first bout of immobility) was recorded and used for statistical analysis of compound effect. […]

[5] = system: pentylenetetrazole-induced convulsions; assay: Pentylenetetrazole (PTZ) Seizure Test; format: in vivo, rats; conditions: 10 mg/kg p.o., mesylate salt, PTZ 100 mg/kg s.c.
Method: Rats, placed in individual macrolon cages (25×19×13 cm), were injected with pentylenetetrazole (PTZ) (100 mg/kg s.c.). The occurrence and latency of clonic and tonic convulsions and death were noted over a 30 minute period. 15 rats were studied per group. The test was performed blind.
as §2
Compounds were evaluated typically using 0.5% dimethylsulfoxide, 4% hydroxypropyl-b-cyclodextrin water as a vehicle at 1 or more doses (e.g., 1, 3 and 10 mg/kg), administered p.o. 30 minutes before PTZ, and compared with a vehicle control group. Diazepam (16 mg/kg p.o.), administered 60 minutes before PTZ, was used as reference substance. The experiment was performed over 2 separate sub-experiments with N=7 to 8 animals per group and per sub-experiment. Quantitative data (latencies) with the test substance was analyzed by comparing treated groups with vehicle control using Kruskal-Wallis test followed by Mann-Whitney U test. Quantitative data with the reference substance was analyzed using Mann-Whitney U test. Quantal data (frequencies) was analyzed by comparing treated groups with vehicle control using Fisher's Exact Probability tests (*=p<0.05; **=p<0.01; ***=p<0.001).

CYP2D6, sequence (P10635 whole entry): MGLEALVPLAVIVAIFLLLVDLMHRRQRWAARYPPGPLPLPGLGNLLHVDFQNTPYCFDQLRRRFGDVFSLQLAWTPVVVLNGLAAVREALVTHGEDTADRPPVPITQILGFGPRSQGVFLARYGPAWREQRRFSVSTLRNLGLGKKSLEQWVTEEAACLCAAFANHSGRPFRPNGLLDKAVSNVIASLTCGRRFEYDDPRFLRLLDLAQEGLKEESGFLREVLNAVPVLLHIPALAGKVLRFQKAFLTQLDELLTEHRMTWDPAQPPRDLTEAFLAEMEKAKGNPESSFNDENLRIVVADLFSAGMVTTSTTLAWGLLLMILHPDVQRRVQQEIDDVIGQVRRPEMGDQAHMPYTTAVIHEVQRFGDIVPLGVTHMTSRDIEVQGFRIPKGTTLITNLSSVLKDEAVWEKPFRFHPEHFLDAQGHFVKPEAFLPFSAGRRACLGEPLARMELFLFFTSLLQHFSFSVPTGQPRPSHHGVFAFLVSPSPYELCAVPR
cloned human NR1/NR2A, sequence (Q12879 23-1464, other chains not shown): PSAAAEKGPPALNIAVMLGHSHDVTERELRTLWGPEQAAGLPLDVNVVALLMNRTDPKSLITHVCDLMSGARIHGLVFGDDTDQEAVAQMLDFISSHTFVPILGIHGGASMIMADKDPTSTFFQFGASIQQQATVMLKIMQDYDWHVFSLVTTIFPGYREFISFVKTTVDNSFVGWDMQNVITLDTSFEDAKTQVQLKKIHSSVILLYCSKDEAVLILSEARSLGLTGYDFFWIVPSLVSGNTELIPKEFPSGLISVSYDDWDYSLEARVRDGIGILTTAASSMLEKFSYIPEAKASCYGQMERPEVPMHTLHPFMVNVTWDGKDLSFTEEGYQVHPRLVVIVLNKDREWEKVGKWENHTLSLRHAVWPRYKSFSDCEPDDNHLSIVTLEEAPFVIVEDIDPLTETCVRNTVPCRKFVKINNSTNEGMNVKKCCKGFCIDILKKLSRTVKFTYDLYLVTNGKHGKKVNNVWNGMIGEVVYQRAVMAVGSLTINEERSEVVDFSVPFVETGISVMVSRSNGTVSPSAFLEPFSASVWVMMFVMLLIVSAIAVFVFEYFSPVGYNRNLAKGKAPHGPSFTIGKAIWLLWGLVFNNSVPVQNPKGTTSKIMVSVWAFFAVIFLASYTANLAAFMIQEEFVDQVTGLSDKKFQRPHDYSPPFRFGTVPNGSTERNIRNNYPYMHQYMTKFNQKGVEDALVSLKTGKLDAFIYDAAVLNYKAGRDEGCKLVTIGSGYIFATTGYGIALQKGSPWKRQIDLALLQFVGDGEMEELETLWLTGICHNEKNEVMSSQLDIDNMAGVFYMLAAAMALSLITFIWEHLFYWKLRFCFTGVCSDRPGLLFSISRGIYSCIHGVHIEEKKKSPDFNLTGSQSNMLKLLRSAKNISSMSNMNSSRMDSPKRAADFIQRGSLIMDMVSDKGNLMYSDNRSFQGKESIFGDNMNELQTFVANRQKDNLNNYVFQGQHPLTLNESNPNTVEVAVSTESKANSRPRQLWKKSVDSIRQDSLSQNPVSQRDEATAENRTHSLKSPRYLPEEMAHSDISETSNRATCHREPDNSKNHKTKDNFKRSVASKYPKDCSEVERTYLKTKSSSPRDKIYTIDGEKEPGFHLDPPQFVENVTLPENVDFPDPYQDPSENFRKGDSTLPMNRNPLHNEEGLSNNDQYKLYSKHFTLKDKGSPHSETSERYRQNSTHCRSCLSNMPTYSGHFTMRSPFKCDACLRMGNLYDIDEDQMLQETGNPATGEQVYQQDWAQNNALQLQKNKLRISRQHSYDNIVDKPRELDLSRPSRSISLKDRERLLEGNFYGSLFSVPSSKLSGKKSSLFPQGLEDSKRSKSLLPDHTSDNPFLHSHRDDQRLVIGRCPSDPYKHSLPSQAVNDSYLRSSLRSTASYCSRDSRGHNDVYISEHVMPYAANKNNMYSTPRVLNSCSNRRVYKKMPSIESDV

Structure (SMILES) | partial effect on [3H] MK-801 binding [2] | CYP2D6 @ 10 μM (%) (CYP2D6) | further results
CN(C)CCCN1c2ccccc2CCc2ccccc21 [imipramine] |  |  | antidepressant activity (immobility time) ([3]; 32 mpk i.p. once 30 min before the test): expected antidepressant activity; antidepressant activity (immobility time) ([3]; 64 mpk p.o. once 60 min before the test): expected antidepressant activity; antidepressant activity (immobility time) ([3]; 128 mpk p.o. once 60 minutes before the test on Day 7): expected antidepressant activity; antidepressant activity (immobility time) ([4]; 32 mpk i.p. 3 times: 24 h, 4 h and 30 min before the test (Session 2)): expected antidepressant activity; antidepressant activity (immobility time) ([4]; 64 mpk p.o. 3 times: 24 h, 4 h and 60 min before the test (Session 2)): expected antidepressant activity
CCc1ccc(COC(=O)N2CC[C@H](CNc3nccn4cnnc34)C(F)(F)C2)cc1 [Compound E1-1.5, R-4-ethylbenzyl 4-(([1,2,4]triazolo[4,3-a]pyrazin-8-ylamino)methyl)-3,3-difluoropiperidine-1-carboxylate] | 48% |  | 
O=C(OCc1ccc(Cl)cc1)N1CC[C@H](CNc2nccn3cnnc23)C(F)(F)C1 [Compound E1-1.3, R-4-chlorobenzyl 4-(([1,2,4]triazolo[4,3-a]pyrazin-8-ylamino)methyl)-3,3-difluoropiperidine-1-carboxylate] | 41% | 37% | 
Cc1ccc(COC(=O)N2CC[C@H](CNc3cnc(C)cn3)C(F)(F)C2)cc1 [Compound E1-21.26, R-4-methylbenzyl 3,3-difluoro-4-((5-methylpyrazin-2-ylamino)-methyl)piperidine-1-carboxylate] | 41% | 32% | activity on electroconvulsive threshold ([1]; 3 and 10 mpk p.o., mesylate salt): anticonvulsant activity; latency to death, change vs vehicle controls [5]: +31%; number of deaths, change vs vehicle controls [5]: −82%
Cn1c(=O)c2[nH]cnc2n(C)c1=O [theophylline, reference compound] |  |  | activity on electroconvulsive threshold ([1]; 128 mpk p.o.): expected proconvulsant activity
O=C(OCc1ccc(F)cc1)N1CC[C@H](CNc2nccn3cnnc23)C(F)(F)C1 [Compound E1-1.4, R-4-fluorobenzyl 4-(([1,2,4]triazolo[4,3-a]pyrazin-8-ylamino)methyl)-3,3-difluoropiperidine-1-carboxylate] | 32% | 19% | 

Further lines, with some results ahead:

partial effect on [3H] MK-801 binding [2] | CYP2D6 @ 10 μM (%) (CYP2D6) | Structure (SMILES) | further results
33% | 83% | Cc1ccc(COC(=O)N2CC[C@H](CNc3ncc4cn[nH]c4n3)C(F)(F)C2)cc1 [Compound E1-8.2, (+)-R-4-methylbenzyl-4-((1H-pyrazolo[3,4-d]pyrimidin-6-ylamino)methyl)-3,3-difluoropiperidine-1-carboxylate] | activity on electroconvulsive threshold ([1]; 0.5 and 2 mpk p.o., free base): modest proconvulsant activity; activity on electroconvulsive threshold ([1]; 10 and 20 mpk p.o., free base): anticonvulsant activity; IC50 (cloned human NR1/NR2A): > 10 µM
 | 93% | FC(F)(F)c1ccc(C(F)(F)CN2CCC(Nc3ncnc4[nH]ncc34)CC2)cc1 [LX-1, reference compound] | 
34% | 14% | Cc1ccc(COC(=O)N2CC[C@H](CNc3nc4ccccn4n3)C(F)(F)C2)cc1 [Compound E1-9.2, (+)-R-4-methylbenzyl 4-(([1,2,4]triazolo[1,5-α]pyridin-2-ylamino)methyl)-3,3-difluoropiperidine-1-carboxylate] | IC50 (cloned human NR1/NR2A): > 10 µM
36% |  | Cc1ccc(COC(=O)N2CC[C@@H](CNc3nccn4cnnc34)C(F)(F)C2)cc1 [Compound E2-1.2, (−)-S-4-methylbenzyl 4-(([1,2,4]triazolo[4,3-a]pyrazin-8-ylamino)methyl)-3,3-difluoropiperidine-1-carboxylate] | 
49% | 97% | Cc1ccc(COC(=O)N2CC[C@H](CNc3cnccn3)C(F)(F)C2)cc1 [Compound E1-21.2, R-4-methylbenzyl 3,3-difluoro-4-((pyrazin-2-ylamino)methyl)piperidine-1-carboxylate] | 
 | 18% | Cc1ccc(COC(=O)N2CC[C@H](CNc3cncc4nncn34)C(F)(F)C2)cc1 [Compound E1-2.2, R-4-methylbenzyl 4-(([1,2,4]triazolo[4,3-a]pyrazin-5-ylamino)methyl)-3,3-difluoropiperidine-1-carboxylate] | 
